Data reported in PubChem BioAssay AID330 (DTP/NCI, 2004).
Several values for one entry are separate records, joined by “and”; a condition that tells them apart may be missing. Identical values can stand only once. Toxic doses and inconclusive results are not listed. The calls were made as follows: active = survival T/C of 150% or more; inactive = T/C below 125% in these data. Peptide text beside a SMILES is read from it.

Tested on: P388 leukemia ip, CD2F1 mice, survival T/C
Assay: NCI In Vivo Anticancer Drug Screen. Data for tumor model P388 Leukemia (intraperitoneal) in CD2F1 (CDF1) mice
Settings: endpoint: median survival time, higher = longer survival
Outline: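 Mice carrying the transplanted tumor received test compound or vehicle. Survival was recorded in each group, and the value is the treated-group measurement divided by that of the vehicle-treated control group.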

[1] = dose: 6.25 mg/kg/injection, schedule: Q04DX003 (ip), vehicle: saline
[2] = dose: 12.5 mg/kg/injection, schedule: Q04DX003 (ip), vehicle: saline
[3] = dose: 25.0 mg/kg/injection, schedule: Q04DX003 (ip), vehicle: saline
[4] = dose: 50.0 mg/kg/injection, schedule: Q04DX003 (ip), vehicle: saline
[5] = dose: 25.0 mg/kg/injection, schedule: Q01DX009 (ip), vehicle: saline with Tween-80
[6] = dose: 25.0 mg/kg/injection, schedule: Q01DX009 (ip), vehicle: saline
[7] = dose: 50.0 mg/kg/injection, schedule: Q01DX009 (ip), vehicle: saline
[8] = dose: 100.0 mg/kg/injection, schedule: Q01DX009 (ip), vehicle: saline
[9] = dose: 12.5 mg/kg/injection, schedule: Q01DX005 (ip), vehicle: saline with Tween-80
[10] = dose: 25.0 mg/kg/injection, schedule: Q01DX005 (ip), vehicle: saline with Tween-80
[11] = dose: 50.0 mg/kg/injection, schedule: Q01DX005 (ip), vehicle: saline with Tween-80
[12] = dose: 50.0 mg/kg/injection, schedule: Q01DX005 (ip), vehicle: Klucel (hydroxypropylcellulose) (HPC)
[13] = dose: 100.0 mg/kg/injection, schedule: Q01DX009 (ip), vehicle: saline with Tween-80
[14] = dose: 100.0 mg/kg/injection, schedule: Q01DX005 (ip), vehicle: saline with Tween-80
[15] = dose: 50.0 mg/kg/injection, schedule: Q04DX002 (ip), vehicle: saline
[16] = dose: 200.0 mg/kg/injection, schedule: Q01DX005 (ip), vehicle: saline with Tween-80

Measured: T/C

S=C1CCNCC1
inactive: dose: 3.13 mg/kg/injection, schedule: Q04DX003 (ip), vehicle: saline 100 % of control | [1] 104 % of control | [2] 100 % of control | [3] 100 % of control | [4] 90 % of control

CC(C)CC(NC(=O)C(N)CCCN=C(N)N)C(=O)O (stereo not drawn) (H-Arg-Leu-OH; configuration not given here)
inactive: dose: 50.0 mg/kg/injection, schedule: Q01DX005 (ip), vehicle: saline 100 % of control | dose: 100.0 mg/kg/injection, schedule: Q01DX005 (ip), vehicle: saline 100 % of control | dose: 200.0 mg/kg/injection, schedule: Q01DX005 (ip), vehicle: saline 106 % of control

CC(N)C1CCC2C3CC=C4CC(N)CCC4(C)C3CCC12C (centres undefined)
inactive: dose: 10.0 mg/kg/injection, schedule: Q01DX009 (ip), vehicle: saline with Tween-80 112 % of control | dose: 20.0 mg/kg/injection, schedule: Q01DX009 (ip), vehicle: saline with Tween-80 94 % of control

CCCCCC(C[N+](C)(C)C)C(=O)/C=C/c1ccc(Cl)c(Cl)c1 (centres undefined)
inactive: dose: 3.12 mg/kg/injection, schedule: Q01DX009 (ip), vehicle: saline with Tween-80 105 % of control | dose: 6.25 mg/kg/injection, schedule: Q01DX009 (ip), vehicle: saline with Tween-80 120 % of control | dose: 6.25 mg/kg/injection, schedule: Q01DX009 (ip), vehicle: saline 114 % of control | dose: 12.5 mg/kg/injection, schedule: Q01DX009 (ip), vehicle: saline with Tween-80 101 % of control | dose: 12.5 mg/kg/injection, schedule: Q01DX009 (ip), vehicle: saline 114 % of control and 124 % of control | [5] 111 % of control | [6] 110 % of control

CCOC(=O)C1CC(=O)c2ccc(OC)c(OC)c2C1 (centres undefined)
inactive: dose: 25.0 mg/kg/injection, schedule: Q01DX009 (ip), vehicle: other 103 % of control | dose: 50.0 mg/kg/injection, schedule: Q01DX009 (ip), vehicle: other 100 % of control | dose: 100.0 mg/kg/injection, schedule: Q01DX009 (ip), vehicle: other 94 % of control | dose: 200.0 mg/kg/injection, schedule: Q01DX009 (ip), vehicle: other 94 % of control | dose: 400.0 mg/kg/injection, schedule: Q01DX009 (ip), vehicle: other 98 % of control

CCC(=O)OC1C2(O)C(OC(=O)C(C)C)C3(C)CC24OC2(C)OC15C1CC(=O)OC(c6ccoc6)C1(C)CCC5(O2)C4(C)C3CC(=O)OC (centres undefined)
inactive: dose: 0.37 mg/kg/injection, schedule: Q01DX009 (ip), vehicle: Klucel (hydroxypropylcellulose) (HPC) 108 % of control | dose: 0.75 mg/kg/injection, schedule: Q01DX009 (ip), vehicle: Klucel (hydroxypropylcellulose) (HPC) 101 % of control | dose: 1.5 mg/kg/injection, schedule: Q01DX009 (ip), vehicle: Klucel (hydroxypropylcellulose) (HPC) 102 % of control | dose: 3.0 mg/kg/injection, schedule: Q01DX009 (ip), vehicle: Klucel (hydroxypropylcellulose) (HPC) 96 % of control

COP(=O)(O)NS(C)(=O)=O
inactive: [6] 100 % of control | [7] 102 % of control | [8] 103 % of control

CN(C)c1ccc2cc(-n3nnc4cc([N+](=O)[O-])ccc43)c(=O)oc2c1
inactive: [9] 100 % of control | [10] 99 % of control | [11] 90 % of control

CC(=O)OC1CC2CCCCC2[N+](C)(C)C1 (centres undefined)
inactive: [3] 106 % of control | [4] 103 % of control | dose: 100.0 mg/kg/injection, schedule: Q04DX003 (ip), vehicle: saline 104 % of control

C[CH2][Sn]1([CH2]C)[O]C(=O)CC(=O)[O]1
inactive: dose: 1.56 mg/kg/injection, schedule: Q04DX003 (ip), vehicle: saline 105 % of control and 120 % of control | dose: 3.12 mg/kg/injection, schedule: Q04DX003 (ip), vehicle: saline 115 % of control and 118 % of control | [1] 114 % of control and 124 % of control | [2] 109 % of control

Nc1ccc(S(=O)(=O)n2c(=O)oc3cc(Cl)ccc32)cc1
inactive: dose: 12.5 mg/kg/injection, schedule: Q01DX005 (ip), vehicle: Klucel (hydroxypropylcellulose) (HPC) 100 % of control | dose: 25.0 mg/kg/injection, schedule: Q01DX005 (ip), vehicle: Klucel (hydroxypropylcellulose) (HPC) 93 % of control | [12] 102 % of control and 91 % of control

Cc1c([N+](=O)[O-])oc2c1C(=O)N([N+](=O)[O-])CCC2
inactive: dose: 100.0 mg/kg/injection, schedule: Q04DX003 (ip), vehicle: Klucel (hydroxypropylcellulose) (HPC) 114 % of control

Sc1ccccc1.[Ag]
inactive: [5] 97 % of control | dose: 50.0 mg/kg/injection, schedule: Q01DX009 (ip), vehicle: saline with Tween-80 105 % of control | [13] 96 % of control

CCC[CH2][Hg][O]C(C)=O
inactive: dose: 2.0 mg/kg/injection, schedule: Q01DX009 (ip), vehicle: other 95 % of control | dose: 3.0 mg/kg/injection, schedule: Q01DX009 (ip), vehicle: other 100 % of control | dose: 4.5 mg/kg/injection, schedule: Q01DX009 (ip), vehicle: other 113 % of control

CCN(CC)Cc1cc2[nH]c3c4ccc(Cl)cc4ncc3c2cc1OC (tested in a mixture with another compound)
inactive: [9] 100 % of control and 108 % of control | [10] 109 % of control [middle of 4 runs] | [11] 102 % of control and 103 % of control and 113 % of control | [14] 105 % of control and 109 % of control and 106 % of control

CCCCCCCCCCCCCCCCOc1ccc(S(=O)(=O)N/N=c2/sc3ccc(S(=O)(=O)O)cc3n2C)cc1C(=O)O
inactive: [6] 99 % of control | [7] 100 % of control | [13] 102 % of control | [8] 86 % of control

CC(=O)Nc1nc(N(C)C)nc(N(C)C)n1
inactive: [15] 109 % of control | dose: 100.0 mg/kg/injection, schedule: Q04DX002 (ip), vehicle: saline 107 % of control | dose: 200.0 mg/kg/injection, schedule: Q04DX002 (ip), vehicle: saline 114 % of control

Cc1ccccc1NC(=O)C(=O)C(C#N)c1ccc(Cl)cc1Cl (centres undefined)
inactive: [11] 100 % of control | [14] 100 % of control | [16] 98 % of control

COC(=O)CCC(=O)C(C#N)c1nc2ccccc2s1 (centres undefined)
inactive: [11] 94 % of control | [14] 92 % of control | [16] 92 % of control

CCCOC1=NC2=NC(OCCC)=NC3=C(Br)C=C(Br)C(=N1)N23
inactive: [12] 95 % of control | dose: 100.0 mg/kg/injection, schedule: Q01DX005 (ip), vehicle: Klucel (hydroxypropylcellulose) (HPC) 94 % of control | dose: 200.0 mg/kg/injection, schedule: Q01DX005 (ip), vehicle: Klucel (hydroxypropylcellulose) (HPC) 91 % of control

CCCCCCCC/C=C/CCCCCCCC(=O)NCCCN (tested in a mixture with another compound)
inactive: dose: 25.0 mg/kg/injection, schedule: Q04DX002 (ip), vehicle: saline 104 % of control | [15] 103 % of control

CCN(Cc1ccc(CN(CC)C(=O)c2c(-c3ccccc3)noc2C)cc1)C(=O)c1c(-c2ccccc2)noc1C
inactive: dose: 50.0 mg/kg/injection, schedule: Q01DX009 (ip), vehicle: suspension in saline 90 % of control | dose: 100.0 mg/kg/injection, schedule: Q01DX009 (ip), vehicle: suspension in saline 92 % of control | dose: 200.0 mg/kg/injection, schedule: Q01DX009 (ip), vehicle: suspension in saline 86 % of control and 94 % of control
